In data set [1] the test system is Hepatitis C virus. The data set can be described thus: Inhibition of HCV 1b NS5B polymerase. On the set-up: species or system Hepatitis C virus subtype 1b.
Data set [2] in a line: Aqueous solubility of compound. The data set is classed as physicochemical. As to conditions: buffer.
Data set [3] concerns Hepatitis C virus. In words: Antiviral activity against HCV 1b in Huh-7/2209-23 cells by replicon assay. Type of data set: functional, organism-based, Hepacivirus hominis. As to conditions: genotype 1b.

In brackets after ≈: the same amount, converted by molar mass.

Take `CC(C)CCc1nc(C2=NS(=O)(=O)c3ccccc32)c(O)c2ccccc12`: half-maximal inhibition in data set [1] (IC50) was put at 4500 nM.

In turn, `O=c1cccc(-c2cccc3c2S(=O)(=O)N=C3c2nc(Cc3ccc(F)cc3)c3ccccc3c2O)[nH]1` showed a solubility in data set [2] of 6 µg/mL (≈ 11.7 µM). For the same compound, the values for the IC50 in data set [1] and in data set [3] were 730 nM and 400 nM, respectively.

Regarding `COc1cccc2c1S(=O)(=O)N=C2c1nc(Cc2ccc(F)cc2)c2ccccc2c1O`, in data set [2], the solubility is 40 µg/mL (≈ 89.2 µM). Besides, the IC50 in data set [1] was 610 nM; in data set [3] it was 760 nM.

As for `O=S1(=O)N=C(c2nc(CCC3CC3)c3ccccc3c2O)c2ccccc21`, the solubility in data set [2] was determined as 10 µg/mL (≈ 26.4 µM). The IC50 in data set [1] was 1000 nM; in data set [3] it was 2700 nM.

On to `CC(C)CCc1nc(C2=NS(=O)(=O)c3ccccc3N2)c(O)c2ccccc12`, for which half-maximal inhibition in data set [1] (IC50) was put at 51000 nM.

Consider `O=S1(=O)N=C(c2nc(Cc3ccc(F)cc3)c3ccccc3c2O)c2ccccc21`, for which, in data set [2], the solubility is 16 µg/mL (≈ 38.2 µM). The half-maximal inhibitory concentration (IC50) in data set [3] came out at 440 nM.

Compound `O=S1(=O)N=C(c2nc(Cc3ccccc3)c3ccccc3c2O)Nc2ccccc21` had an IC50 in data set [1] of 47000 nM.

For `O=S1(=O)N=C(c2nc(Cc3ccc(F)cc3)c3ccccc3c2O)c2cccc(-c3cccc(O)c3)c21`, the solubility in data set [2] was found to be 3 µg/mL (≈ 5.88 µM). For the same compound, the IC50 in data set [1] is 350 nM; in data set [3] it was 1100 nM.

Turning to `O=S1(=O)N=C(c2nc(Cc3ccc(F)cc3)c3ccccc3c2O)c2cccc(-c3ccccc3)c21`, the concentration in solution in data set [2] (solubility) was 41 µg/mL (≈ 82.9 µM). Also, the IC50 worked out at 3900 nM in data set [1] and 800 nM in data set [3].

The compound `CC(=O)Nc1cccc(-c2cccc3c2S(=O)(=O)N=C3c2nc(Cc3ccc(F)cc3)c3ccccc3c2O)c1` registered a solubility in data set [2] of 17 µg/mL (≈ 30.8 µM). Besides, the IC50 in data set [1] is 530 nM; in data set [3] it was 940 nM.

On to `O=S1(=O)N=C(c2nc(Cc3ccc(F)cc3)c3ccccc3c2O)c2cccc(Cl)c21`, for which the solubility in data set [2] came out at 2 µg/mL (≈ 4.42 µM). Moreover, the values for the IC50 in data set [1] and in data set [3] were 580 nM and 430 nM, respectively.

On to `O=c1ccc(-c2cccc3c2S(=O)(=O)N=C3c2nc(Cc3ccc(F)cc3)c3ccccc3c2O)c[nH]1`, for which the solubility in data set [2] is 7 µg/mL (≈ 13.7 µM). Also, the IC50 amounted to 410 nM in data set [1] and 75 nM in data set [3].

`O=S1(=O)N=C(c2nc(Cc3ccc(F)cc3)c3ccccc3c2O)c2cccc(-c3cccnc3)c21`: the concentration in solution in data set [2] (solubility) was 3 µg/mL (≈ 6.05 µM). For the same compound, the half-maximal inhibitory concentration (IC50) in data set [1] was 550 nM; in data set [3], 150 nM.

With `O=S1(=O)N=C(c2nc(Cc3ccc(F)cc3)c3ccccc3c2O)c2cccc(-c3cn[nH]c3)c21`, the IC50 in data set [1] is 720 nM; in data set [3], 780 nM.

For `O=S1(=O)N=C(c2nc(Cc3ccc(F)cc3)c3ccccc3c2O)c2cccc(-c3cncnc3)c21`, in data set [2], the concentration in solution (solubility) was 9 µg/mL (≈ 18.1 µM). Also, the IC50 in data set [1] amounted to 1800 nM; in data set [3] it was 380 nM.

Source of the values: ChEMBL document CHEMBL1154535, “3-Hydroxyisoquinolines as inhibitors of HCV NS5b RNA-dependent RNA polymerase” (Bioorg Med Chem Lett, 2009).
